The record followed here is US20070043084A1, “1,2-Diarylimidazoles useful as inhibitors of cox” (Astellas Pharma Inc., priority 2003, published 2007).

Series [1] concerns adjuvant arthritis in rats. Briefly: Analgesic activity: effect on adjuvant arthritis in rats (Randall-Selitto pain threshold). The series is classed as in vivo, Lewis rats. Particulars: dose 3.2 mg/kg; ratio of threshold pressure of treated vs non-treated arthritic rats, 2 hrs after administration; ratio of 1.5 = effective dose.
The target in series [2] is T1, COX-II (Homo sapiens, UniProt P35354).
T1 construct: lipopolysaccharide for 24 hrs at 37° C. for induction of COX-II; from tissue; host or cells: fresh heparinized human whole blood from volunteers, stimulated with LPS for 24 hrs
T1 sequence (P35354 18-604): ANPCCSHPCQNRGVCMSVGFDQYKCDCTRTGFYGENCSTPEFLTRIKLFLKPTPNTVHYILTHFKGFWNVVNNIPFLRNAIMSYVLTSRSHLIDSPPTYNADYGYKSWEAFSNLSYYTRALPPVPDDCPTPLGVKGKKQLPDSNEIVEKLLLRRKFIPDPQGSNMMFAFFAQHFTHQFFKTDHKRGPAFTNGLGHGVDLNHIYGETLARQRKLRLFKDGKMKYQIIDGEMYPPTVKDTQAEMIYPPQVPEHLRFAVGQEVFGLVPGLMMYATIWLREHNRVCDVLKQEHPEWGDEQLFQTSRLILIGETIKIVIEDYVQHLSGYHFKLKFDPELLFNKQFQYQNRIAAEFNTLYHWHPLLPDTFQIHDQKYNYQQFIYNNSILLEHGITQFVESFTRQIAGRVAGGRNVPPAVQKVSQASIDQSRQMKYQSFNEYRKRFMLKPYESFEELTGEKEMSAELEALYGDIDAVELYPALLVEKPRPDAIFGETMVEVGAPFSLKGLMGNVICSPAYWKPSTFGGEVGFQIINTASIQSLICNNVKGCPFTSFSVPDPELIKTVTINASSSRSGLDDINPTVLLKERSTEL
Briefly: Whole blood assay for COX-II (LPS-induced PGE2 production). The series is classed as cell-based. Particulars: lipopolysaccharide 24 hrs at 37° C. The method, then: Whole Blood Assay for COX-II
Fresh blood was collected in heparinized tubes by syringe from volunteers with consent. The subjects had no apparent inflammatory conditions and had not taken any medication for at least 7 days prior to blood collection.
500 μl aliquots of human whole blood were incubated with either 2 μl dimethyl sulfoxide vehicle or 2 μl of a test compound at final concentrations for 15 min at 37° C. This was followed by incubation of the blood with […] of 5 mg/ml lipopolysaccharide for 24 hrs at 37° C. for induction of COX-II. Appropriate PBS treatments (no LPS) were used as blanks. At the end of the incubation, the blood was centrifuged at 6000×g for 5 min at 4° C. to obtain plasma. A 100 μl aliquot of plasma was mixed with 400 μl methanol for protein precipitation. The supernatant was obtained by centrifuging at 6000×g for 5 min at 4° C. and was assayed for prostaglandin E2 (PGE2) using a radioimmunoassay kit after conversion of PGE2 to its methyl oximate derivative according to the manufacturer's procedure.
For a test compound, the results were expressed as percent inhibition of […] production relative to control incubations containing dimethyl sulfoxide vehicle. The data were analyzed by that a test compound at the indicated concentrations was changed log value and was applied simple linear regression. IC50 value was calculated by least squares method.

Series [3] has as its target T2, COX-I (Homo sapiens, UniProt P23219).
T2 construct: Fresh blood was collected by syringe without anticoagulants from volunteers with consent; from tissue; host or cells: fresh human whole blood from volunteers, no anticoagulant, left to clot
Briefly: Whole blood assay for COX-I (TXB2 production). The series is classed as cell-based. The following applies: 1 hr at 37° C. The method, then:
[B] Inhibiting Activity Against COX-I and COX-II (Whole Blood Assay): (i) Test Method: Whole Blood Assay for COX-I
Fresh blood was collected by syringe without anticoagulants from volunteers with consent. The subjects had no apparent inflammatory conditions and had not taken any medication for at least 7 days prior to blood collection.
500 μl aliquots of human whole blood were immediately incubated with 2 μl of either dimethyl sulfoxide vehicle or a test compound at final concentrations for 1 hr at 37° C. to allow the blood to clot. Appropriate treatments (no incubation) were used as blanks. At the end of the incubation, 5 μl of 250 mM Indomethacin was added to stop the reaction. The blood was centrifuged at 6000×g for 5 min at 4° C. to obtain serum. A 100 μl aliquot of serum was mixed with 400 μl methanol for protein precipitation. The supernatant was obtained by centrifuging at 6000×g for 5 min at 4° C. and was assayed for TXB2 using an enzyme immunoassay kit according to the manufacturer's procedure. For a test compound, the results were expressed as percent inhibition of thromboxane B2(TXB2) production relative to control incubations containing dimethyl sulfoxide vehicle.
The data were analyzed by that a test compound at the indicated concentrations was changed log value and was applied simple linear regression. IC50 value was calculated by least squares method.

pIC50: −log10 of the molar value.

T2 sequence (P23219 24-599): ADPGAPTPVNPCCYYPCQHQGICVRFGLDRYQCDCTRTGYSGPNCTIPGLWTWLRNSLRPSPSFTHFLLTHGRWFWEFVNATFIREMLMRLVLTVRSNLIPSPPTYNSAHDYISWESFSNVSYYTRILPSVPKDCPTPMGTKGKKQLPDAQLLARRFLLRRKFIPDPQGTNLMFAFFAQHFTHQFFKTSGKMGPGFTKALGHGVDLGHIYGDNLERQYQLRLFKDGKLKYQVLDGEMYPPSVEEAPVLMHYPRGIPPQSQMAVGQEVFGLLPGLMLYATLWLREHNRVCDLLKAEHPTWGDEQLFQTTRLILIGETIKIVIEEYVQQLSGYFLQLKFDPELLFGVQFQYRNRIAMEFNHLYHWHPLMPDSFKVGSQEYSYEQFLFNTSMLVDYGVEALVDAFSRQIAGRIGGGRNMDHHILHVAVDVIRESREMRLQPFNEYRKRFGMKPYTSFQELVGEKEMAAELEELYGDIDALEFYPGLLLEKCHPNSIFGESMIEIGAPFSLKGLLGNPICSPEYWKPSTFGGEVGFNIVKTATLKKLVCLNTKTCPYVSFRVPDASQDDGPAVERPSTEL

By pIC50 is commonly meant the negative decadic logarithm of the IC50, by convention in mol/L. Lower therefore signals a high IC50. What is called melting point is the temperature, or range, at which the solid turns liquid. `COc1ccc(-n2cc(C(F)(F)F)nc2-c2ccc(OC)nc2)cc1` [Example 3-2, 1-(4-Methoxyphenyl)-2-(2-methoxy-5-pyridinyl)-4-trifluoromethyl-1H-imidazole]: the melting point was 90 to 92 °C. Moreover, the “The coefficient of analgesic” value in series [1] is more than 1.5. Besides, the pIC50 in series [2] is not above 7.00. In series [3], this compound showed a pIC50 of more than 8.00.
For `COc1ccc(-n2cc(C(F)F)nc2-c2ccc(OC)nc2)cc1` [Example 43, 4-Difluoromethyl-1-(4-methoxyphenyl)-2-(2-methoxy-5-pyridinyl)-1H-imidazole] the same measures were 106 to 107 °C, more than 1.5, not above 7.00 and more than 8.00.
Taken in the same sequence, the figures for `COc1ccc(-c2nc(C#N)cn2-c2ccc(OC)cc2)cc1.Cl` [Example 11, 4-Cyano-1-(4-methoxyphenyl)-2-(4-methoxyphenyl)-1H-imidazole hydrochloride] were 142 to 143 °C, more than 1.5, not above 7.00 and more than 8.00.
Taken in the same sequence, the figures for `COc1ccc(-c2nc(C(F)(F)F)cn2-c2ccc(C#N)cc2)cc1` [Example 24, 1-(4-Cyanophenyl)-2-(4-methoxyphenyl)-4-trifluoromethyl-1H-imidazole] were 146 to 148 °C, more than 1.5, not above 7.00 and more than 8.00.
`COc1ccc(-c2nc(C(F)F)cn2-c2ccc(C#N)cc2)cn1` [Example 40, 1-(4-Cyanophenyl)-4-difluoromethyl-2-(2-methoxy-5-pyridinyl)-1H-imidazole] registered a melting point of 160 to 161 °C. The “The coefficient of analgesic” value in series [1] was more than 1.5. Besides, the pIC50 in series [2] is not above 7.00. Also, the pIC50 in series [3] was more than 8.00.
